The values that follow are results of earlier work, collected in patent US20120214870A1, “METHODS FOR DIAGNOSIS AND TREATMENT OF CHRONIC FATIGUE SYNDROME” (UNIVERSITY OF SOUTH AUSTRALIA, priority 2009, published 2012).

Entries after “also recorded” stand apart in the source; their conditions may differ.

The test system of one data set is CPT-I. Conditions: Yoon et al., 2003; Amengual et al., 2008.

In the case of `CC1=C(/C=C/C(C)=C/C=C/C(C)=C/C(=O)O)C(C)(C)CCC1` [all-trans retinoic acid, reference compound], in the data set on CPT-I, the “CPT-I expression or activity” value is listed as “upregulate”. For `CC(=O)O[C@H](CC(=O)[O-])C[N+](C)(C)C` [C2, acetyl-L-carnitine], the “mental fatigue and attention concentration” value with CFS patients (supplementation (Vermeulen & Scholte, 2004; Malaguarnera et al. 2008)) is recorded as “significant improvements”. With `CCC(=O)O[C@H](CC(=O)[O-])C[N+](C)(C)C` [C3, propionyl-L-carnitine], in the data set with CFS patients (administration (Vermeulen & Scholte, 2004)), the “general and physical fatigue” value is recorded as “significant improvements”.

Take `C[N+](C)(C)C[C@H](O)CC(=O)[O-]` [LC, L-carnitine]: the “fatigue severity in CFS patients” value in the data set on CFS patients (after 2 months of supplementation (Plioplys and Plioplys, 1997)) is listed as “significantly reduce”. Further, the “CPT-I expression or activity” value in the data set on CPT-I is given as “increase; also recorded: upregulate”.
